Results taken from patent US10220033B2, “Substituted benzoxazepine for cancer therapy” (University of Cape Town, priority 2014, dated 2019).
Where two headings read alike, the source gives them in different places.

Experiments:
[1] = tested on: CaSki cervical cancer cell line; experiment: MTT assay for cell viability, IC50 determination; format: cell-based
Description: (§1) Cells were plated in 96-well plates and treated with varying concentrations of a test compound for 48 hours, after which MTT dye, 3-(4,5-dimethylthiazol-2-yl)-2,5-diphenyltetrazolium bromide (Sigma), was added, and crystals solubilised 4 hours later using Solubilisation Reagent (10% SLS in 0.01 M HCl). Absorbencies were measured at 595 nm the following day using a BioTek microplate spectrophotometer (Winooski, Vt., USA) and IC50 curves were generated using GraphPad Prism.

[2] = tested on: NFAT transcriptional activity in NFAT-transfected HeLa cells; experiment: NFAT luciferase reporter assay; format: cell-based; conditions: stimulated with TPA and ionomycin (FIGS. 16-20)
Description: To assay for NFAT luciferase activity, 30 000 HeLa cells were plated per well in 24-well plates, and transfected with 50 ng GFP-NFAT plasmid (Addgene plasmid #24219, gift of Jerry Crabtree (Beals C R, Clipstone N A, Ho S N, Crabtree G R. Nuclear localization of NF-ATc by a calcineurin-dependent, cyclosporin-sensitive intramolecular interaction. Genes Dev 1997 Apr. 1; 11(7):824-34)), 50 ng NFAT-luciferase (Addgene plasmid #10959, gift of Toren Finkel (Ichida M, Finkel T. Ras regulates NFAT3 activity in cardiac myocytes. J Biol Chem 2001 Feb. 2; 276(5):3524-30)), and 5 ng pRL-TK, using 0.4 μl Genecellin™ Transfection Reagent (Celtic Molecular Diagnostics, South Africa). The NFAT-luciferase reporter plasmid contains three tandem repeats of a 30 bp fragment of the IL-2 promoter known to bind NFAT. The following day cells were treated with 10 or 15 μM Compound A and after an overnight incubation, stimulated with 100 nM TPA (Sigma) and 1.3 μM Ionomycin (Santa Cruz Biotechnology, Santa Cruz, Calif., USA) for 5 hours, following which luciferase activity was measured.
An assay for nuclear NFAT following ionomycin and Compound A treatment was carried out, using an NFAT-luciferase reporter that is activated by nuclear NFAT. The phorbol ester TPA was used to co-stimulate NFAT, as it has been shown previously that TPA and ionomycin elicit synergistic stimulation of NFAT luciferase activity (Northrop J P, Ullman K S, Crabtree G R. Characterization of the nuclear and cytoplasmic components of the lymphoid-specific nuclear factor of activated T cells (NF-AT) complex. J Biol Chem 1993 Feb. 5; 268(4):2917-23).

[3] = tested on: HeLa cervical cancer cell line; experiment: MTT assay for cell viability, IC50 determination; format: cell-based; conditions: for IC50: Homo sapiens, HeLa
Description: as §1

[4] = tested on: WHCO5 oesophageal cancer cell line; experiment: MTT assay for cell viability, IC50 determination; format: cell-based, human; conditions: Homo sapiens
Description: as §1

[5] = tested on: KYSE180 oesophageal cancer cell line; experiment: MTT assay for cell viability, IC50 determination; format: cell-based; conditions: Homo sapiens, KYSE-180, 48 hours
Description: as §1

[6] = MTT assay for cell viability, IC50 determination; format: cell-based; conditions: Homo sapiens, MCF-12A, MCF12A
Description: as §1

[7] = tested on: DMB normal skin fibroblasts (non-cancer); experiment: MTT assay for cell viability, IC50 determination; format: cell-based; conditions: Skin fibroblast
Description: as §1

[8] = tested on: KYSE150 oesophageal cancer cell line; experiment: MTT assay for cell viability, IC50 determination; format: cell-based; conditions: Homo sapiens, KYSE-150
Description: as §1

[9] = tested on: MCF7 breast cancer cell line; experiment: MTT assay for cell viability, IC50 determination; format: cell-based; conditions: Homo sapiens
Description: as §1

[10] = tested on: MDA-MB-231 breast cancer cell line; experiment: MTT assay for cell viability, IC50 determination; format: cell-based; conditions: Homo sapiens
Description: as §1

[11] = tested on: SVWI38 transformed cell line; experiment: MTT assay for cell viability, IC50 determination; format: cell-based
Description: as §1

[12] = tested on: WI38 non-cancer cell line; experiment: MTT assay for cell viability, IC50 determination; format: cell-based; conditions: Homo sapiens, WI-38
Description: as §1

[13] = tested on: cancer cell lines; experiment: MTT cell viability, summary statements over panels of cancer cell lines; format: cell-based; conditions: CaSki, HeLa, WHCO5, KYSE150, MCF12A, MCF7, MDA-MB-231, SVW138 (Table 4); read-out: IC50 values
Description: as §1

[14] = tested on: EPC2 (EPC2-hTERT normal immortalised oesophageal epithelial cells); experiment: MTT assay for cell viability, IC50 determination; format: cell-based; conditions: Homo sapiens, compound in salt form
Description: as §1

[15] = Homo sapiens, Ca-Ski, 48 h, MTT, read-out: IC50
[16] = 48 h, 48 hours, MTT, read-out: IC50
[17] = Homo sapiens, Ca-Ski, compound in salt form, read-out: IC50
[18] = compound in salt form, read-out: IC50

IC50 [1, 15] [µM]	IC50 ([4]; 48 h, MTT) [µM]	IC50 [3, 16] [µM]	IC50 [5] [µM]	Compound	further results
5.59	5.7	6.36	6.03	CCN(CC)CCCn1c(N)c(-c2nc3ccccc3[nH]2)c2nc3ccccc3nc21 [Compound B]	–
9.49	8.32	7.19	8.46	Nc1c(-c2nc3ccccc3[nH]2)c2nc3ccccc3nc2n1CCCn1ccnc1 [Compound C]	–
12.2	12.2	8.38	14.8	CCCn1c(N)c(-c2nc3ccccc3[nH]2)c2nc3ccccc3nc21 [Compound D]	–
14.3	5.94	8.29	8.79	CCCCn1c(N)c(-c2nc3ccccc3[nH]2)c2nc3ccccc3nc21 [Compound E]	–
7.55	6.59	6.77	5.35	CC(C)Cn1c(N)c(-c2nc3ccccc3[nH]2)c2nc3ccccc3nc21 [Compound F]	–
6.17	6.14	6.38	5.51	CC(C)CCn1c(N)c(-c2nc3ccccc3[nH]2)c2nc3ccccc3nc21 [Compound G]	–
10	6.3	4.04	1.18	Nc1c(-c2nc3ccccc3[nH]2)c2nc3ccccc3nc2n1CCCO [Compound H]	–
6.62	6.79	4.16	7.23	CCn1c(N)c(-c2nc3ccccc3[nH]2)c2nc3ccccc3nc21 [Compound K]	–

Second part, the compound before the results:

Compound	IC50 [1, 15] [µM]	IC50 ([4]; 48 h, MTT) [µM]	IC50 [3, 16] [µM]	IC50 [5] [µM]	further results
Cc1ccc2cc(CNCCCN3C[C@@H]4C=C[C@H]3C4)c(N3CCC(O)CC3)nc2c1 (stereo in doubt) [VIII, 1-[3-[[3-[(1S,4R)-5-azabicyclo[2.2.1]hept-2-en-5-yl]propylamino]methyl]-7-methyl-2-quinolyl]piperidin4-ol]	24.4	–	–	–	–
COc1cc2ncnc(Nc3cccc(Cl)c3)c2cc1OC [AG 1478, reference compound]	–	–	–	–	NFAT activation (NFAT-luciferase reporter) [2]: no change
c1ccc2[nH]cnc2c1 [Benzimidazole, benzimidazole, reference compound]	–	–	–	–	IC50 ([3]; HeLa cells (FIG. 3B), read-out: IC50 concentration (cell-killing effect)): 2080 µM
Clc1ccccc1COc1nc2cc3c(cc2cc1CNCc1cn2c(n1)SCC2)CCC3 [Compound IV, ({2-[(2-chlorophenyl)methoxy]-6H,7H,8H-cyclopenta[g]quinolin-3-yl}methyl)({2H,3H-imidazo[2,1-b][1,3]thiazol-6-ylmethyl})amine]	8.69	17.9	8.62	–	IC50 ([6]; 48 hours, MTT): 11.4 µM; IC50 ([7]; DMB non-cancer, 48 hours, MTT): 8.27 µM; IC50 ([8]; KYSE150, 48 hours, MTT): 11.2 µM; IC50 ([9]; 48 hours, MTT): 14 µM; IC50 ([10]; 48 hours, MTT): 8.01 µM; IC50 ([11]; SVWI38 transformed, 48 hours, MTT): 12.9 µM; IC50 ([12]; WI38 non-cancer, 48 hours, MTT): 25.1 µM; IC50 [13]: 8 to 18 µM
Cc1cccc(N[C@@H](c2ccc(N(C)C)cc2)c2ccc3ccc(C)nc3c2O)n1 [Compound IX, 7-[(4-dimethylaminophenyl)-[(6-methyl-2-pyridyl)amino]methyl]-2-methyl-quinolin-8-ol]	26.6	–	–	–	IC50 ([4]; compound in salt form): 22.4 µM; IC50 ([6]; compound in salt form): 27.8 µM; IC50 [1, 17]: 26.6 µM; IC50 ([7]; DMB, compound in salt form): 40.9 µM; IC50 [14]: 5.78 µM; IC50 [3, 18]: 12.3 µM; IC50 ([8]; Kyse150, compound in salt form): 9.08 µM; IC50 ([9]; compound in salt form): 50.2 µM; IC50 ([10]; compound in salt form): 10.4 µM; IC50 ([11]; SVWI38, compound in salt form): 15.3 µM; IC50 ([12]; WI38, compound in salt form): 20.8 µM
Cn1c(-c2c(N)n(CCCN3CCOCC3)c3nc4ccccc4nc23)nc2ccccc21 [Compound I]	–	19.6	15.4	22	IC50 ([1]; 48 hours, MTT): Does not converge.
CCCn1c(N)c(-c2nc3ccccc3n2C)c2nc3ccccc3nc21 [Compound J]	38.4	11.8	22.2	33.1	–
Cc1csc2nc(CNCc3cc4cc5c(cc4n(CC4CCCCC4)c3=O)CCC5)cn12 [Compound X, 1-(cyclohexylmethyl)-3-[[(3-methylimidazo[2,1-b]thiazol-6-yl)methylamino]methyl]-7,8-dihydro-6H-cyclopenta[g]quinolin-2-one]	26.7	–	–	–	IC50 ([4]; compound in salt form): 20 µM; IC50 ([6]; compound in salt form): 11.7 µM; IC50 [1, 17]: 26.7 µM; IC50 ([7]; DMB, compound in salt form): 69.3 µM; IC50 [14]: 9.37 µM; IC50 [3, 18]: 21.5 µM; IC50 ([8]; Kyse150, compound in salt form): 32.2 µM; IC50 ([9]; compound in salt form): 23.7 µM; IC50 ([10]; compound in salt form): 22.1 µM; IC50 ([11]; SVWI38, compound in salt form): 33.5 µM; IC50 ([12]; WI38, compound in salt form): 39.4 µM
Cc1csc2nc(CNCc3cc4cc5c(cc4n(CCN4CCCCC4)c3=O)CCC5)cn12 [Compound XI, 3-[[(3-methylimidazo[2,1-b]thiazol-6-yl)methylamino]methyl]-1-[2-(1-piperidyl)ethyl]-7,8-dihydro-6H-cyclopenta[g]quinolin-2-one]	26.9	–	–	–	IC50 ([4]; compound in salt form): 17 µM; IC50 ([6]; compound in salt form): 61.8 µM; IC50 [1, 17]: 26.9 µM; IC50 ([7]; DMB, compound in salt form): 31.2 µM; IC50 [3, 18]: 33.1 µM; IC50 ([8]; Kyse150, compound in salt form): 40.1 µM; IC50 ([9]; compound in salt form): 95 µM; IC50 ([10]; compound in salt form): 32.7 µM; IC50 ([11]; SVWI38, compound in salt form): 41.1 µM; IC50 ([12]; WI38, compound in salt form): 35 µM
CCOC(=O)c1cc2c(=O)n3cc(C)ccc3nc2[n+](CCCN2CCOCC2)c1N [V, ethyl 2-imino-8-methyl-1-[3-(4-morpholinyl)propyl]-5-oxo-1,5-dihydro-2H-dipyrido[1,2-a:2′,3′-d]pyrimidine-3-carboxylate]	16.4	–	–	–	–
COc1ccc(C)cc1NC(=O)[C@@H](NCc1nc2ccccc2n1C)c1ccccc1 [VI, (2S)-N-(2-methoxy-5-methyl-phenyl)-2-[(1-methylbenzimidazol-2-yl)methylamino]-2-phenyl-acetamide]	19.1	–	–	–	–
Cc1ccc(OC[C@@H](O)CN2CCN(CCO)CC2)cc1C [VII, (2S)-1-(3,4-dimethylphenoxy)-3-[4-(2-hydroxyethyl)piperazin-1-yl]propan-2-ol]	22.2	–	–	–	–
Cc1ccc2c(c1)c1c(n2C[C@@H](O)CNC[C@@H]2CCCO2)CCCC1 [XIV, (2S)-1-(6-methyl-1,2,3,4-tetrahydrocarbazol-9-yl)-3-[[(2S)-tetrahydrofuran-2-yl]methylamino]propan-2-ol]	31.7	–	–	–	–
OCCCNCc1cc2cc3c(cc2nc1N1CCN(c2cccc(Cl)c2)CC1)OCO3 [XV, 3-[[6-[4-(3-chlorophenyl)piperazin-1-yl]-[1,3]dioxolo[4,5-g]quinolin-7-yl]methylamino]propan-1-ol]	37.7	–	–	–	–
CN1CCc2cc(CNC3CCN(c4ccc(C(=O)NC5CCCC5)cc4)CC3)ccc21 [XVI, N-cyclopentyl-4-[4-[(1-methylindolin-5-yl)methylamino]-1-piperidyl]benzamide]	46.8	–	–	–	–
c1ccc2nccnc2c1 [quinoxaline, reference compound]	–	–	–	–	cell-killing effect ([3]; HeLa cells, concentration range of up to 6.5 mM (FIG. 3A)): No cell-killing effect was observed
Ivermectin [reference compound]	–	–	–	–	NFAT activation (NFAT-luciferase reporter) [2]: significantly diminished
